Measurements reported in patent publication US7326288B2, “Trisazo compound, ink composition, and colored object” (Nippon Kayaku Kabushiki Kaisha, priority 2003, dated 2008).

Experiment: solubility in water of the isolated trisazo compound
Format: physicochemical
Details: not given
For `COc1ccc(N=Nc2c(S(=O)(=O)O)cc3c(S(=O)(=O)O)c(N=Nc4cc(S(=O)(=O)O)c5cc(S(=O)(=O)O)c(N=Nc6ccc([N+](=O)[O-])cc6S(=O)(=O)O)c(O)c5c4N)ccc3c2O)c(S(=O)(=O)O)c1` [compound 1], the solubility was ≥ 100 mg/mL. With `Nc1c(N=Nc2ccc3c(O)c(N=Nc4ccc(S(=O)(=O)O)cc4C(=O)O)c(S(=O)(=O)O)cc3c2S(=O)(=O)O)cc(S(=O)(=O)O)c2cc(S(=O)(=O)O)c(N=Nc3ccc([N+](=O)[O-])cc3S(=O)(=O)O)c(O)c12` [compound 2] the solubility was ≥ 100 mg/mL. With `Nc1c(N=Nc2ccc3c(O)c(N=Nc4cc(C(=O)O)ccc4C(=O)O)c(S(=O)(=O)O)cc3c2S(=O)(=O)O)cc(S(=O)(=O)O)c2cc(S(=O)(=O)O)c(N=Nc3ccc([N+](=O)[O-])cc3S(=O)(=O)O)c(O)c12` [compound 3] the solubility was ≥ 100 mg/mL. With `Nc1c(N=Nc2ccc3c(O)c(N=Nc4ccc(S(N)(=O)=O)cc4C(=O)O)c(S(=O)(=O)O)cc3c2S(=O)(=O)O)cc(S(=O)(=O)O)c2cc(S(=O)(=O)O)c(N=Nc3ccc([N+](=O)[O-])cc3S(=O)(=O)O)c(O)c12` [compound 4] the solubility was ≥ 100 mg/mL. With `Nc1c(N=Nc2ccc3c(O)c(N=Nc4ccc([N+](=O)[O-])cc4S(=O)(=O)O)c(S(=O)(=O)O)cc3c2S(=O)(=O)O)cc(S(=O)(=O)O)c2cc(S(=O)(=O)O)c(N=Nc3ccc([N+](=O)[O-])cc3S(=O)(=O)O)c(O)c12` [compound 5] the solubility was ≥ 100 mg/mL. With `CNS(=O)(=O)c1ccc(N=Nc2c(S(=O)(=O)O)cc3c(S(=O)(=O)O)c(N=Nc4cc(S(=O)(=O)O)c5cc(S(=O)(=O)O)c(N=Nc6ccc([N+](=O)[O-])cc6S(=O)(=O)O)c(O)c5c4N)ccc3c2O)c(C(=O)O)c1` [compound 9] the solubility was ≥ 100 mg/mL. For `Nc1c(N=Nc2ccc3c(O)c(N=Nc4cc(S(=O)(=O)O)c5cc([N+](=O)[O-])cc(S(=O)(=O)O)c5c4)c(S(=O)(=O)O)cc3c2S(=O)(=O)O)cc(S(=O)(=O)O)c2cc(S(=O)(=O)O)c(N=Nc3ccc([N+](=O)[O-])cc3S(=O)(=O)O)c(O)c12` [compound 20], the solubility was ≥ 100 mg/mL. For `Nc1c(N=Nc2ccc3c(O)c(N=Nc4cc(C(=O)O)cc(C(=O)O)c4)c(S(=O)(=O)O)cc3c2S(=O)(=O)O)cc(S(=O)(=O)O)c2cc(S(=O)(=O)O)c(N=Nc3ccc([N+](=O)[O-])cc3S(=O)(=O)O)c(O)c12` [compound 24], the solubility was ≥ 100 mg/mL. For `Nc1c(N=Nc2ccc3c(O)c(N=Nc4cc(C(=O)O)cc(C(=O)O)c4)c(S(=O)(=O)O)cc3c2S(=O)(=O)O)cc(S(=O)(=O)O)c2cc(S(=O)(=O)O)c(N=Nc3ccc(S(=O)(=O)O)cc3[N+](=O)[O-])c(O)c12` [compound 26], the solubility was ≥ 100 mg/mL.

Experiment: Solubility Test (ammonia alkalinity, spot on filter paper)
Format: physicochemical
Details: aqueous buffer, thermodynamic from solid
Method: Using ion exchanged water for a water, pH was adjusted at 9 to 9.5 with aqueous ammonia. They were treated with ultrasonic vessel at ordinary temperature. Toyo Filter Paper No. 131 was spotted with them, surface of which after dried was observed and solubility of which was determined. When a spot was uniform and insoluble material were not observed, it was judged to be soluble. When a spot was ununiform and insoluble material were observed, it was judged to be not soluble.
In the case of `Nc1c(N=Nc2ccc3c(O)c(N=Nc4cc(S(=O)(=O)O)ccc4S(=O)(=O)O)c(S(=O)(=O)O)cc3c2S(=O)(=O)O)cc(S(=O)(=O)O)c2cc(S(=O)(=O)O)c(N=Nc3ccc([N+](=O)[O-])cc3S(=O)(=O)O)c(O)c12` [Formula (2-10)], the solubility is reported as ≥ 120 mg/mL.
